tested on: lice; experiment: Standard in vitro test on filter paper (petri-dish lice repellency); conditions: 10 min, 20±3° C.
Procedure: Screening tests were performed on many substances of the following groups: terpenes (hydrocarbons), terpenoid alcohols, terpenoid esters, terpenoid aldehydes and ketones, essential oils which contain terpenoids and perfumes which contain terpenoids, as well as various general insect repellents, for lice-repellency. Each experiment included exposure of the lice to different concentrations of the tested substance, and measuring the dose response of those materials.
A petri-dish method was used to examine the repellency of the solutions for lice. A filter paper (Whatman No. 4, 5.5 cm in diameter) was secured in a petri-dish. A 100 μl portion of the test solution was placed on a corduroy patch (1.5 cm^2). The material was allowed to dry for 30 min. at room temperature (20±3° C.) and the patch was placed at the periphery of the petri-dish. A patch treated with a control solution (96% Ethanol) was placed on the opposite side of the dish. Twenty female lice which had been fed 24 hours previously were placed in the middle of the dish. A box was placed over the dish and it was covered with a dark cloth in order to keep the test area in the dark. The experiment was carried out at room temperature (20°±3° C.) and lasted 10 min. The number of lice on the treated and controlled patches as well as on the area between the patches was recorded in a protocol. The experiment was repeated three times for each sample.
% repellency was calculated by the following formula:
where: T=number of lice on the treated patch
C=number of lice on the untreated patch
The following terms were recorded:
RC80 =Concentration giving 80% repellency.
RC50 =Concentration giving 50% repellency.
RD80 =mg/cm^2 giving 80% repellency.
RD50 =mg/cm^2 giving 50% repellency.

Row | Molecule | RC50 (Concentration giving 50% repellency) [%] | RC80 (Concentration giving 80% repellency) [%] | RD80 (mg/cm^2 giving 80% repellency) [mg/cm^2] | RD50 (mg/cm^2 giving 50% repellency) [mg/cm^2]
1 | CC1=CC=C(C(C)C)CC1 | 0.900 | 1.500 | 1.050 | –
2 | CC(=O)O[C@@H]1C[C@H]2CC[C@]1(C)C2(C)C (racemic) [ISO BORNYL ACETATE] | 0.600 | 0.800 | 0.560 | –
3 | C=C(C)[C@H]1CC=C(C)CC1 [+ LIMONENE] | 2.000 | 3.000 | 2.100 | –
4 | C=C(C)[C@@H]1CC=C(C)CC1 [- LIMONENE] | 3.000 | 4.000 | 2.800 | –
5 | CC1=CCC2C(C1)C2(C)C (centres unmarked) [CARENE] | 1.000 | 2.000 | 1.400 | –
6 | C=C(C)C1CC=C(C)[C@@H](O)C1 (some centres unmarked) [CARVEOL, carveol] | 0.600 | 1.500 | 1.050 | –
7 | C=C(C)C1CC=C(C)C(OC(=O)CC)C1 (centres unmarked) [CARVYL PROPRIONATE, carvyl propionate] | 0.200 | 0.600 | 0.420 | 0.140
8 | CC(C)=CCCC(C)=CC=O [CITRAL] | 0.300 | 0.600 | 0.420 | –
9 | CC1(C)C2CCC(CO)C1C2 (stereo not drawn) [Cis MYRTANOL] | 0.600 | 1.000 | 0.700 | 0.420
10 | CC1=CC(O)C2CC1C2(C)C (stereo not drawn) [Cis VERBENOL, cis-verbenol] | 1.000 | 2.000 | 1.400 | 0.700
11 | C=C(C)C1CCC(C)C(O)C1 (centres unmarked) [DIHYDRO CARVEOL, dihydrocarveol] | 0.400 | 0.900 | 0.630 | 0.280
12 | C=C(C)C1CCC(C)C(=O)C1 (centres unmarked) [DIHYDRO CARVONE] | 0.200 | 0.500 | 0.350 | –
13 | C=CC(C)CCCC(C)(C)O (centres unmarked) [DIHYDRO MYRCENOL, dihydro-myrcenol] | 0.600 | 0.800 | 0.560 | –
14 | C=C(C)C1CCC(C)C(OC(C)=O)C1 (centres unmarked) [DIH[…]] | 0.150 | 0.300 | 0.210 | 0.105
15 | CC(C)=CCC/C(C)=C/CO [GERANIOL, geraniol] | 0.005 | 0.020 | 0.014 | –
16 | CC1C(O)CC2CC1C2(C)C (centres unmarked) [ISOPINO-CAMPHEOL, iso-pinocampheol] | 0.200 | 0.300 | 0.210 | 0.140
17 | C=C(C)[C@@H]1CC[C@@H](C)C[C@H]1O [ISOPULEGOL, isopulegol] | 0.500 | 0.800 | 0.560 | –
18 | C=CC(C)(O)CCC=C(C)C (centres unmarked) [LINALOOL, linalool] | 0.020 | 0.080 | 0.056 | –
19 | CC1CCC(C(C)C)C(O)C1 (centres unmarked) [MENTHOL, menthol] | 0.030 | 0.150 | 0.105 | –
20 | CC1CCC(C(C)C)C(OC(=O)C(C)O)C1 (centres unmarked) [MENTHYL LACTATE, menthyl lactate] | 0.050 | 0.100 | 0.070 | –
21 | CC1(C)C2CC=C(CO)C1C2 (centres unmarked) [MYRTENOL, myrtenol] | 0.500 | 0.900 | 0.630 | 0.350
22 | CC(C)=CCC/C(C)=C\CO [NEROL, nerol] | 0.500 | 0.800 | 0.560 | –
23 | C=C(C)[C@@H]1CC=C(CO)CC1 [PERILLIL ALCOHOL, perillyl alcohol] | 0.010 | 0.030 | 0.020 | –
24 | CC(C)=C1CC[C@@H](C)CC1=O [PULEGONE] | 0.400 | 0.700 | 0.490 | –
25 | CC1=CCC(O)(C(C)C)CC1 (centres unmarked) [terpinen-4-ol] | 0.020 | 0.090 | 0.063 | –
26 | C=C1CCC2CC1C2(C)C (stereo not drawn) [β PINENE] | 0.200 | 1.100 | 0.770 | –
27 | CC(C)=CCCC(C)CCO (stereo not drawn) [β-CITRONELLOL, β-citronellol] | 0.020 | 0.070 | 0.049 | –
28 | IONONE | 0.250 | 0.600 | 0.420 | 0.170

— patent US5227163A, “Lice-repellant compositions” (priority 1992, dated 1993)
